From EP0603240B1, “SAFENING HERBICIDAL PYRAZOLYLSULFONYLUREAS” (priority 1991, dated 1993)
Where two headings read alike, the source gives them in different places.

Assays:
Format in all cases: in vivo
[1] = tested on: velvetleaf (Abutilon theophrasti); experiment: Example 7, Procedure II: Herbicide No. 1 + metolachlor (No. 12) with antidotes
Procedure: (§1) Containers were filled and compacted with a fumigated silt loam top soil to a depth of about 1.3 cm from the top of the container. A first container was designated as an untreated control, a second container was designated as a herbicide control, and a third container was designated as a herbicide + antidote test container. Each of the containers was seeded with a crop species. A measured amount of herbicide dispersed or dissolved in acetone was applied to a measured quantity of soil. To this same quantity of soil treated with herbicide, there was added a measured amount of antidote dispersed or dissolved in acetone. The quantity of soil treated with the herbicide and antidote was thoroughly mixed to incorporate the herbicide and antidote in the soil uniformly. The seed bed in the third container of soil was covered with the soil treated with the herbicide and antidote and the container was leveled. For each test series, the seed beds of the first and second containers were likewise covered by soil layers. the cover layer of the first container was not treated with herbicide or antidote.
(§2) The containers were then placed on a bench in a greenhouse and sub-irrigated as required for the duration of the test. […] Plant response is measured in terms of percent injury. Antidote efficacy is indicated as the difference in plant injury by the herbicide(s) without the antidote and with the antidote.
(§3) This procedure is the same as Procedure I, but modified in the manner that after incorporation of the chemicals (herbicide and antidote) the containers with the covered seedbed were treated with an initial overhead irrigation equivalent to 0.6 cm rainfall, then subsequently sub-irrigated as required on greenhouse benches.
In the series of greenhouse tests described below, for routine screening purposes the herbicide/antidote compositions were tested in crop/weed combinations involving corn as the crop and either or both of the weeds barnyardgrass (Echinochloa crusgalli), a monocotyledonous weed, and velvetleaf (Abutilon theophrasti), a dicotyledonous weed. In the tables below, these weeds are indicated by the symbols "BYG" and "VL", respectively.
In this example, Procedure II described above was followed. The data from the tests in this example is shown in Table 6 and represents averages of duplicate replications.
The tests in this example followed the same procedure and antidotes used in Example 6. However, Herbicide No. 12 (metolachlor) was used as the co-herbicide with Herbicide No. 1.

corn [2] = experiment: Example 9, Procedure II: Herbicide No. 1 + pretilachlor (No. 13) with antidotes; conditions: Herbicide No. 1 0.56 kg/ha + Herbicide No. 13 2.24 kg/ha in combination, no antidote
Procedure: as §1, §2, §3
In this example the safening effect on a composition comprising Herbicide No. 1 and another leading rice herbicide, i.e., Herbicide No. 13, was investigated using the same antidotes and test procedure described in the preceding example. Herbicide No. 13 is pretilachlor, active ingredient used in the commercial rice herbicides RIFIT®, SOFIT® and SOFIT® SUPER.

[3] = tested on: velvetleaf (Abutilon theophrasti); experiment: Example 24, Procedure II: Herbicide No. 1 + co-herbicides Nos. 4, 6, 7, 12 with Antidote Nos. 15 and 17-21; conditions: Abutilon theophrasti
Outline: (§4)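 Greenhouse pots, herbicide No. 1 plus co-herbicides and antidote in acetone incorporated into silt loam soil covering the corn seed bed, with giant foxtail and velvetleaf; initial overhead irrigation equal to 0.6 cm rainfall, then sub-irrigation. Antidote at 2.24 kg/ha; percent injury read 13 days after application, duplicate average.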

[4] = tested on: Giant foxtail (Setaria fabergi); experiment: as above; conditions: Setaria
Outline: as §4

corn [5] = experiment: as above; conditions: Zea mays
Outline: as §4

COC(=O)c1c(Cl)nn(C)c1S(=O)(=O)NC(=O)Nc1nc(OC)cc(OC)n1 [Herbicide No. 1]
% Injury VL ([1]; Herbicide No.1 0.14 + No.12 3.36 kg/ha, no antidote): 70%
% Injury VL ([1]; Herbicide No.1 0.14 + No.12 3.36 kg/ha, no antidote (second such line, r25)): 60%
% Injury VL ([1]; Herbicide No.1 0.56 + No.12 3.36 kg/ha, no antidote (second such line, r24)): 75%
% Injury VL ([1]; Herbicide No.1 0.56 + No.12 (metolachlor) 3.36 kg/ha, no antidote): 85%
injury to corn (corn [2]): 65%
inhibition at 1120 g/ha ([3]; read-out: % Inhibition VL, Herb. No. 1 0.07 Kg/ha + Co-Herb. No. 4 1.12 Kg/ha, no antidote): 90%
inhibition at 140 g/ha ([3]; read-out: % Inhibition VL, Herb. No. 1 0.07 Kg/ha + Co-Herb. No. 6 0.14 Kg/ha, no antidote): 85%
inhibition at 280 g/ha ([3]; read-out: % Inhibition VL, Herb. No. 1 0.07 Kg/ha + Co-Herb. No. 7 0.28 Kg/ha, no antidote): 90%
inhibition at 280 g/ha ([3]; read-out: % Inhibition VL, Herb. No. 1 0.07 Kg/ha + Co-Herb. No. 12 0.28 Kg/ha, no antidote): 85%
inhibition at 1120 g/ha ([3]; read-out: % Inhibition VL, Herb. No. 1 0.14 Kg/ha + Co-Herb. No. 4 1.12 Kg/ha, no antidote): 90%
inhibition at 140 g/ha ([3]; read-out: % Inhibition VL, Herb. No. 1 0.14 Kg/ha + Co-Herb. No. 6 0.14 Kg/ha, no antidote): 95%
inhibition at 280 g/ha ([3]; read-out: % Inhibition VL, Herb. No. 1 0.14 Kg/ha + Co-Herb. No. 7 0.28 Kg/ha, no antidote): 90%
inhibition at 280 g/ha ([3]; read-out: % Inhibition VL, Herb. No. 1 0.14 Kg/ha + Co-Herb. No. 12 0.28 Kg/ha, no antidote): 90%
inhibition at 1120 g/ha ([3]; read-out: % Inhibition VL, Herb. No. 1 0.28 Kg/ha + Co-Herb. No. 4 1.12 Kg/ha, no antidote): 95%
inhibition at 140 g/ha ([3]; read-out: % Inhibition VL, Herb. No. 1 0.28 Kg/ha + Co-Herb. No. 6 0.14 Kg/ha, no antidote): 95%
inhibition at 280 g/ha ([3]; read-out: % Inhibition VL, Herb. No. 1 0.28 Kg/ha + Co-Herb. No. 7 0.28 Kg/ha, no antidote): 95%
inhibition at 280 g/ha ([3]; read-out: % Inhibition VL, Herb. No. 1 0.28 Kg/ha + Co-Herb. No. 12 0.28 Kg/ha, no antidote): 95%
inhibition at 1120 g/ha ([3]; read-out: % Inhibition VL, Herb. No. 1 0.56 Kg/ha + Co-Herb. No. 4 1.12 Kg/ha, no antidote): 90%
inhibition at 140 g/ha ([3]; read-out: % Inhibition VL, Herb. No. 1 0.56 Kg/ha + Co-Herb. No. 6 0.14 Kg/ha, no antidote): 95%
inhibition at 280 g/ha ([3]; read-out: % Inhibition VL, Herb. No. 1 0.56 Kg/ha + Co-Herb. No. 7 0.28 Kg/ha, no antidote): 95%
inhibition at 280 g/ha ([3]; read-out: % Inhibition VL, Herb. No. 1 0.56 Kg/ha + Co-Herb. No. 12 0.28 Kg/ha, no antidote): 90%
inhibition at 1120 g/ha ([4]; read-out: % Inhibition GFT, Herb. No. 1 0.07 Kg/ha + Co-Herb. No. 4 1.12 Kg/ha, no antidote): 70%
inhibition at 140 g/ha ([4]; read-out: % Inhibition GFT, Herb. No. 1 0.07 Kg/ha + Co-Herb. No. 6 0.14 Kg/ha, no antidote): 100%
inhibition at 280 g/ha ([4]; read-out: % Inhibition GFT, Herb. No. 1 0.07 Kg/ha + Co-Herb. No. 7 0.28 Kg/ha, no antidote): 100%
inhibition at 280 g/ha ([4]; read-out: % Inhibition GFT, Herb. No. 1 0.07 Kg/ha + Co-Herb. No. 12 0.28 Kg/ha, no antidote): 99%
inhibition at 1120 g/ha ([4]; read-out: % Inhibition GFT, Herb. No. 1 0.14 Kg/ha + Co-Herb. No. 4 1.12 Kg/ha, no antidote): 80%
inhibition at 140 g/ha ([4]; read-out: % Inhibition GFT, Herb. No. 1 0.14 Kg/ha + Co-Herb. No. 6 0.14 Kg/ha, no antidote): 100%
inhibition at 280 g/ha ([4]; read-out: % Inhibition GFT, Herb. No. 1 0.14 Kg/ha + Co-Herb. No. 7 0.28 Kg/ha, no antidote): 100%
inhibition at 280 g/ha ([4]; read-out: % Inhibition GFT, Herb. No. 1 0.14 Kg/ha + Co-Herb. No. 12 0.28 Kg/ha, no antidote): 99%
inhibition at 1120 g/ha ([4]; read-out: % Inhibition GFT, Herb. No. 1 0.28 Kg/ha + Co-Herb. No. 4 1.12 Kg/ha, no antidote): 85%
inhibition at 140 g/ha ([4]; read-out: % Inhibition GFT, Herb. No. 1 0.28 Kg/ha + Co-Herb. No. 6 0.14 Kg/ha, no antidote): 100%
inhibition at 280 g/ha ([4]; read-out: % Inhibition GFT, Herb. No. 1 0.28 Kg/ha + Co-Herb. No. 7 0.28 Kg/ha, no antidote): 100%
inhibition at 280 g/ha ([4]; read-out: % Inhibition GFT, Herb. No. 1 0.28 Kg/ha + Co-Herb. No. 12 0.28 Kg/ha, no antidote): 99%
inhibition at 1120 g/ha ([4]; read-out: % Inhibition GFT, Herb. No. 1 0.56 Kg/ha + Co-Herb. No. 4 1.12 Kg/ha, no antidote): 75%
inhibition at 140 g/ha ([4]; read-out: % Inhibition GFT, Herb. No. 1 0.56 Kg/ha + Co-Herb. No. 6 0.14 Kg/ha, no antidote): 100%
inhibition at 280 g/ha ([4]; read-out: % Inhibition GFT, Herb. No. 1 0.56 Kg/ha + Co-Herb. No. 7 0.28 Kg/ha, no antidote): 99%
inhibition at 280 g/ha ([4]; read-out: % Inhibition GFT, Herb. No. 1 0.56 Kg/ha + Co-Herb. No. 12 0.28 Kg/ha, no antidote): 99%
inhibition at 1120 g/ha (corn [5]; read-out: % Inhibition Corn, Herb. No. 1 0.07 Kg/ha + Co-Herb. No. 4 1.12 Kg/ha, no antidote): 10%
inhibition at 140 g/ha (corn [5]; read-out: % Inhibition Corn, Herb. No. 1 0.07 Kg/ha + Co-Herb. No. 6 0.14 Kg/ha, no antidote): 5%
inhibition at 280 g/ha (corn [5]; read-out: % Inhibition Corn, Herb. No. 1 0.07 Kg/ha + Co-Herb. No. 7 0.28 Kg/ha, no antidote): 5%
inhibition at 280 g/ha (corn [5]; read-out: % Inhibition Corn, Herb. No. 1 0.07 Kg/ha + Co-Herb. No. 12 0.28 Kg/ha, no antidote): 5%
inhibition at 1120 g/ha (corn [5]; read-out: % Inhibition Corn, Herb. No. 1 0.14 Kg/ha + Co-Herb. No. 4 1.12 Kg/ha, no antidote): 20%
inhibition at 140 g/ha (corn [5]; read-out: % Inhibition Corn, Herb. No. 1 0.14 Kg/ha + Co-Herb. No. 6 0.14 Kg/ha, no antidote): 20%
inhibition at 280 g/ha (corn [5]; read-out: % Inhibition Corn, Herb. No. 1 0.14 Kg/ha + Co-Herb. No. 7 0.28 Kg/ha, no antidote): 15%
inhibition at 280 g/ha (corn [5]; read-out: % Inhibition Corn, Herb. No. 1 0.14 Kg/ha + Co-Herb. No. 12 0.28 Kg/ha, no antidote): 10%
inhibition at 1120 g/ha (corn [5]; read-out: % Inhibition Corn, Herb. No. 1 0.28 Kg/ha + Co-Herb. No. 4 1.12 Kg/ha, no antidote): 25%
inhibition at 140 g/ha (corn [5]; read-out: % Inhibition Corn, Herb. No. 1 0.28 Kg/ha + Co-Herb. No. 6 0.14 Kg/ha, no antidote): 25%
inhibition at 280 g/ha (corn [5]; read-out: % Inhibition Corn, Herb. No. 1 0.28 Kg/ha + Co-Herb. No. 7 0.28 Kg/ha, no antidote): 30%
inhibition at 280 g/ha (corn [5]; read-out: % Inhibition Corn, Herb. No. 1 0.28 Kg/ha + Co-Herb. No. 12 0.28 Kg/ha, no antidote): 30%
inhibition at 1120 g/ha (corn [5]; read-out: % Inhibition Corn, Herb. No. 1 0.56 Kg/ha + Co-Herb. No. 4 1.12 Kg/ha, no antidote): 40%
inhibition at 140 g/ha (corn [5]; read-out: % Inhibition Corn, Herb. No. 1 0.56 Kg/ha + Co-Herb. No. 6 0.14 Kg/ha, no antidote): 40%
inhibition at 280 g/ha (corn [5]; read-out: % Inhibition Corn, Herb. No. 1 0.56 Kg/ha + Co-Herb. No. 7 0.28 Kg/ha, no antidote): 45%
inhibition at 280 g/ha (corn [5]; read-out: % Inhibition Corn, Herb. No. 1 0.56 Kg/ha + Co-Herb. No. 12 0.28 Kg/ha, no antidote): 45%
